# pIC50: −log10 of the molar value.
# Key:
# hACSL5 = hACSL5 (Homo sapiens (Human), UniProt Q9ULC5); test: Human ACSL5 coupled enzyme Amplex Red assay; type: biochemical; settings: read-out: hACSL5 IC50
# Procedure, shortened: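 C-terminally His-tagged ACSL5 (33-683) from sf9 cells, 20 nM, was preincubated with compound in MOPS-NaOH pH 7.6 with MgCl2, peroxidase and acyl-CoA oxidase. Reactions were started with 25 μM oleate, 30 μM CoA, 1 mM ATP and 50 μM Amplex Red; fluorescence (535/590 nm) after 10 minutes at 25° C. was fitted to the Hill equation for IC50 and maximal inhibition.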
# [1] = Murine diet-induced obesity (DIO) model, Compounds B-D study; type: in vivo, C57BL/6J mice; settings: DIO mice
# Protocol: The effects of four representative compounds of the invention were tested in a mouse model of diet-induced obesity (DIO): • Compound A is (R)—N-(tert-butylsulfonyl)-4-(1-(5-(pyridin-3-yloxy)pyridin-2-yl)ethoxy)-3-(trifluoromethyl)benzamide; • Compound B is (R)-4-(1-(5-(cyclopropylmethoxy)pyridin-2-yl)propoxy)-N-((4-(2-(dimethylamino)ethoxy)phenyl)sulfonyl)-2,3-difluorobenzamide; • Compound C is (R)—N-((4-(2-(dimethylamino)ethoxy)piperidin-1l-yl)sulfonyl)-2,3-difluoro-4-(1-(5-(pyridin-2-yloxy)pyridin-2-yl)propoxy)benzamide; and • Compound D is (R)-2,3-difluoro-N-((4-methylpiperazin-1-yl)sulfonyl)-4-(1-(5-(pyridin-2-yloxy)pyridin-2-yl)propoxy)benzamide.
# The mice used in these experiments were C57BL/6J mice fed a high-fat diet (D12492 from Research Diets) ad libitum during the study period. The vehicle and test article formulations were 10% w/v Solutol in water.
# In this study, three compounds tested at 30 mg/kg were compared against vehicle control over a month. After their acclimation period, DIO mice were equally divided into groups of ten mice each based on body weight. The animals were pre-dosed for three days prior to formal dosing (once per day treatment every group), as well as weight and food intake were recorded from Day −2 onwards. From Day 1 to Day 27, the animals in the dosing group were administered orally by gavage at 5:00 p.m. every day. All animals were fasted overnight after dosing on Day 28 and Day 29. Then the blood (retro-orbital bleed) of mice from each group was collected at 7:00 a.m. to separate out the serum for measuring total cholesterol levels (TC), triglyceride (TG), aminotransferase alanine (ALT), aspartate aminotransferase (AST) and total bilirubin (TBil) levels on Day 29. On day 30, all animals were performed OGTT test (0 min, 15 min, 30 min, 60 min, 90 min and 120 min) and measured insulin levels (0 min, 15 min, 30 min and 60 min). On day 32, all animals were injected insulin after 4 hours fasting, then performed ITT test (0 min, 15 min, 30 min, 60 min and 90 min). On day 33, Epididymal white adipose tissue (eWAT), jejunum, liver, heart and brain were collected; eWAT, liver and heart weights were recorded. All of the adipose tissue in the abdominal cavity was collected and weighted, and the fatty tissue coefficient (body fat ratio) was calculated and then stored at −80° C. for inspection.
# • 1. Body weight and Food Consumption: Pre-dose every day from Day −2 onwards. • 2. Day −2,—1 and Day 0: Handle mice and gavage with vehicle. • 3. Day 1˜27: Dose˜5:00 PM. • 4. Day 28: Dose˜5:00 PM. Fast overnight. • 5. Day 29: Determine total cholesterol levels and triglyceride, ALT, AST, total bilirubin levels˜7:00 AM. Resume feeding. • 6. Day 29: Dose˜5:00 PM. Fast overnight. • 7. Day 30: (No drug administration) Oral glucose tolerance test (OGTT) with glucose levels measured at Pre-dose, 15 min, 30 min, 60 min, 90 min and 120 min after the glucose challenge. And insulin levels will be test at time 0 min, 15 min, 30 min and 60 min after the glucose challenge. • 8. Day 30˜31: Dose˜5:00 PM. • 9. Day 32: (No drug administration) ITT test (two days after the OGTT test): Fast 4 h. After insulin injection, the levels of glucose will be measured at Pre-dose, 15 min, 30 min, 60 min and 90 min. • 10. After the ITT test. Collect serum with a terminal bleed from all 50 mice. • 11. Collect epidydimal WAT (eWAT) pad, jejunum, liver, heart, and brain. • 12. Record eWAT, liver, and heart weights. • 13. Before freezing tissue/serum: • (i) Assess Drug Concentration; serum, liver, eWAT, heart, jujenum, and brain. (25 serum samples; 5 mice/group will progress to biomarker study and remaining 25 serum samples saved for future analysis). • 14. Prepare liver, heart and eWAT tissue for histopathology analysis. • (ii) Liver for all 50 mice; HE staining to assess liver steatosis. • (iii) Heart or all 50 mice; HE and DAPI staining to assess cardiac morphology. […]
# hACSL5, sequence (Q9ULC5 33-683): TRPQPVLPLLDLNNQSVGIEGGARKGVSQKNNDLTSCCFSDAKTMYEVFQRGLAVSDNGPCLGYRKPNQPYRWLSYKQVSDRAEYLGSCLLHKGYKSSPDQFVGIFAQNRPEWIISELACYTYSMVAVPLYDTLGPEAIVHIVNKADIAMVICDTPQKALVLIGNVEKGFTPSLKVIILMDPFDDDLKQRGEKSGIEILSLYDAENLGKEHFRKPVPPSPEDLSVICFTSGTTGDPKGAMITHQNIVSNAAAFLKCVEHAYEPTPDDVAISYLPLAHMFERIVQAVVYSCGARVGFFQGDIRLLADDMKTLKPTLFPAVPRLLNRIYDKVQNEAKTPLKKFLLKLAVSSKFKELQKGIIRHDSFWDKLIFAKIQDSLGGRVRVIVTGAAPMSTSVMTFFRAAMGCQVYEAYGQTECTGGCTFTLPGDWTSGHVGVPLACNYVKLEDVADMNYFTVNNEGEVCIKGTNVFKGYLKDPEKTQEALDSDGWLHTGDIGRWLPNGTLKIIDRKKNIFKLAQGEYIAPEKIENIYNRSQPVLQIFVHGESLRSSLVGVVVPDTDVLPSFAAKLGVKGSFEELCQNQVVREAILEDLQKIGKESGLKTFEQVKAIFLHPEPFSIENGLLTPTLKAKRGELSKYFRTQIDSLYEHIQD
compound,measurement,setting,value
"CC[C@@H](Oc1ccc(C(=O)NS(=O)(=O)N2CCN(C)CC2)c(F)c1F)c1ccc(Oc2ccccn2)cn1 [Compound D, (R)-2,3-difluoro-N-((4-methylpiperazin-1-yl)sulfonyl)-4-(1-(5-(pyridin-2-yloxy)pyridin-2-yl)propoxy)benzamide]",pIC50,hACSL5,> 7.00
same,mean body weight versus control group,[1]; 30 mg/kg oral daily,significantly lower than that of the control group from Day 15 to the end
same,overall food consumption versus control group,[1]; 30 mg/kg oral daily,significantly lower than that of the control group
same,Body Weight (g)/Day,"[1]; 30 mg/kg oral daily, Day 1",44.9 ± 4.3 g
same,Body Weight (g)/Day,"[1]; 30 mg/kg oral daily, Day 2",44.3 ± 4 g
same,Body Weight (g)/Day,"[1]; 30 mg/kg oral daily, Day 3",43.6 ± 3.9 g
same,Body Weight (g)/Day,"[1]; 30 mg/kg oral daily, Day 4",43.7 ± 3.8 g
same,Body Weight (g)/Day,"[1]; 30 mg/kg oral daily, Day 5",43.7 ± 3.6 g
same,Body Weight (g)/Day,"[1]; 30 mg/kg oral daily, Day 6",43.5 ± 3.6 g
same,Body Weight (g)/Day,"[1]; 30 mg/kg oral daily, Day 7",43.4 ± 3.5 g
same,Body Weight (g)/Day,"[1]; 30 mg/kg oral daily, Day 8",43.7 ± 3.6 g
same,Body Weight (g)/Day,"[1]; 30 mg/kg oral daily, Day 9",43.5 ± 3.6 g
same,Body Weight (g)/Day,"[1]; 30 mg/kg oral daily, Day 10",43.3 ± 3.5 g
same,Body Weight (g)/Day,"[1]; 30 mg/kg oral daily, Day 11",42.9 ± 3.4 g
same,Body Weight (g)/Day,"[1]; 30 mg/kg oral daily, Day 12",42.6 ± 3.4 g
same,Body Weight (g)/Day,"[1]; 30 mg/kg oral daily, Day 13",42.3 ± 3.4 g
same,Body Weight (g)/Day,"[1]; 30 mg/kg oral daily, Day 14",42.3 ± 3.3 g
same,Body Weight (g)/Day,"[1]; 30 mg/kg oral daily, Day 15",42.4 ± 3.2 g
same,Body Weight (g)/Day,"[1]; 30 mg/kg oral daily, Day 16",42.3 ± 3.2 g
same,Body Weight (g)/Day,"[1]; 30 mg/kg oral daily, Day 17",42.1 ± 3.4 g
same,Body Weight (g)/Day,"[1]; 30 mg/kg oral daily, Day 18",42.2 ± 3.4 g
same,Body Weight (g)/Day,"[1]; 30 mg/kg oral daily, Day 19",42.3 ± 3.5 g
same,Body Weight (g)/Day,"[1]; 30 mg/kg oral daily, Day 20",42.3 ± 3.6 g
same,Body Weight (g)/Day,"[1]; 30 mg/kg oral daily, Day 21",42.3 ± 3.6 g
same,Body Weight (g)/Day,"[1]; 30 mg/kg oral daily, Day 22",42.3 ± 3.7 g
same,Body Weight (g)/Day,"[1]; 30 mg/kg oral daily, Day 23",42.3 ± 3.7 g
same,Body Weight (g)/Day,"[1]; 30 mg/kg oral daily, Day 24",42.2 ± 3.8 g
same,Body Weight (g)/Day,"[1]; 30 mg/kg oral daily, Day 25",42.4 ± 3.4 g
same,Body Weight (g)/Day,"[1]; 30 mg/kg oral daily, Day 26",42.5 ± 3.5 g
same,Body Weight (g)/Day,"[1]; 30 mg/kg oral daily, Day 27",42.5 ± 3.7 g
same,Body Weight (g)/Day,"[1]; 30 mg/kg oral daily, Day 28",42.5 ± 3.9 g
same,Body Weight (g)/Day,"[1]; 30 mg/kg oral daily, Day 29",41.8 ± 3.8 g
same,Body Weight (g)/Day,"[1]; 30 mg/kg oral daily, Day 30",39.5 ± 3.6 g
same,Body Weight (g)/Day,"[1]; 30 mg/kg oral daily, Day 31",39.7 ± 3.9 g
same,Body Weight (g)/Day,"[1]; 30 mg/kg oral daily, Day 32",38.9 ± 3.8 g
same,Body Weight (g)/Day,"[1]; 30 mg/kg, Day 0 (pre-dose)",44.9 ± 4.3 g
same,eWAT coefficient versus control group,"[1]; 30 mg/kg, Day 33",slightly lower than that of the control group
same,eWAT weights versus control group,"[1]; 30 mg/kg, Day 33",significantly lower than that of the control group
same,Body Weight (g)/Day,"[1]; 30 mg/kg, Day −1 (pre-dose)",44.8 ± 4.1 g
same,Body Weight (g)/Day,"[1]; 30 mg/kg, Day −2 (pre-dose)",44.9 ± 4.1 g
same,mean adipose weights versus control group,"[1]; 30 mg/kg, abdominal adipose tissue",significantly lower than that of the control group
same,ITT blood glucose versus control group,"[1]; Day 32, at 15, 30, 60 and 90 minutes after insulin",significantly lower than that of the control group

# — patent publication US20250275959A1, “COMPOUNDS AND METHODS OF THEIR USE” (LEXICON PHARMACEUTICALS, INC., priority 2024, published 2025)
